Test results taken from paper PMC11548477, “Cathepsin B- and L-like Protease Activities Are Induced During Developmental Barley Leaf Senescence” (Plants, 2024).
Read-outs that look alike come from different tables or passages of the source. Where a SMILES comes first, the peptide text is derived from it. [ ]: non-standard residue; d: D form. The star is where a group is joined. Sta = CC(C)C[C@H](N)[C@@H](O)CC(=O)O; Isovaleryl = CC(C)CC(=O)*

Columns and labels:
[1] = tested on: cathepsin B- and L-like activity (Z-FR-AMC cleavage) in crude protein extract from barley leaves; experiment: Z-FR-AMC cleavage by crude protein extract from barley leaves; type: biochemical, Hordeum vulgare
Procedure: (§1) Frozen leaves were homogenized with a pre-chilled pestle and mortar in cold extraction buffer (0.1 M Tris–HCl, pH 7.4, 2 mM DTT) at a ratio of 167 mg of leaves:1 mL buffer. The homogenate was centrifugated at 20,000× g for 30 min at 4 °C. The supernatant, which was kept in an ice bath, was used as a sample for measurements of peptidase activity and protein content.
(§2) Fluorogenic substrates Z-FR-AMC to determine cathepsin B- and L-like activity, and Z-RR-AMC to determine cathepsin B-like activity, were used. These substrates show fluorescence when AMC is released as a consequence of the hydrolysis of the Arg-AMC bond. The emitted fluorescence was detected with a SpectraMax M2 microplate reader (Molecular Devices, San Jose, CA, USA) with λex = 360 nm and λem = 460 nm. Before use, the substrates were dissolved in DMSO at 10 mM and frozen at −20 °C. The measurements were made in 96-well black microplates (PerkinElmer Inc, Waltham, MA, USA), and each well contained a 100 μL final volume of an appropriate 0.1 M buffer with DTT (2 mM), extract (1.6 mg of fresh weight), and substrate (25 μM). The reaction was initiated by the addition of the substrate. The final concentration of DMSO in microplate wells was 1% in all the assays. The assays were conducted at room temperature, and relative fluorescence readings were recorded over a period of 10 min.
(§3) For the inhibition assays, an inhibitor (1 µL of stock solution in DMSO) at different concentrations was added to the reaction mixture. For all inhibitors tested, the concentration of inhibitor that caused 50% inhibition of the enzymatic reaction (IC50) was calculated by plotting % inhibition against the logarithm of inhibitor concentration (at least six points). The data are presented as the mean values of at least three independent experiments.

[2] = target: aminopeptidase B and cathepsin H-like activity (R-AMC cleavage) in crude protein extract from barley leaves; experiment: R-AMC cleavage by crude protein extract from barley leaves; type: biochemical, Hordeum vulgare; details: for IC50 / inhibition of R-AMC cleavage: week-3 leaf extract; for concentration up to which no activity on R-AMC cleavage was seen: week-3 leaf samples
[3] = tested on: cathepsin B-like activity (Z-RR-AMC cleavage) in crude protein extract from barley leaves; experiment: Z-RR-AMC cleavage by crude protein extract from barley leaves; type: biochemical, Hordeum vulgare
Procedure: as §1, §2, §3

[4] = tested on: aminopeptidase in barley extracts; parameters: method as in PMID 10681066, PMID 21787929; details: cited from earlier work
[5] = tested on: aminopeptidase in alfalfa extracts; parameters: method as in PMID 10681066, PMID 21787929; details: cited from earlier work
[6] = tested on: 43 kDa DCG-04-labeled cysteine protease band (cathepsin L-like protease or proteases); experiment: inhibition of DCG-04 binding (activity-based labeling), 43 kDa band; parameters: species or system Hordeum vulgare; details: 2.5 μM DCG-04, pH 5.5, 3 h, week-4 leaf extract; for IC50: densitometric analysis of blots
Procedure: (§4) The protein extracts of barley leaves obtained 4 weeks after flowering were preincubated with different concentrations of the inhibitors and proteins were labeled with 2.5 μM DCG-04 at pH 5.5 for 3 h. DMSO (solvent for inhibitors) was used as a control.
(§5) Densitometric analysis was based on 2 blots (mean values ± S.D.); data were normalized to the control value (DMSO solvent without inhibitor). The chemical structures of the inhibitors and calculated values of iLogP are shown on the right side of the figure.
(§6) Protein extracts from barley leaves (67 mg of fresh weight) were incubated with 2.5 μM DCG-04 in 0.1 M citrate buffer, pH 5.5, containing 2 mM DTT. When cysteine protease inhibitors E-64 and CA-074 were used, extracts were preincubated with the inhibitors for 10 min before addition of DCG-04. […] After the incubation, reactions were stopped and proteins were precipitated with inclusion of 100 mM NaCl, along with 80% acetone for rapid precipitation. The pellets were mixed with Laemmli loading buffer and boiled for 5 min [63]. Proteins were then separated on ready-made ExpressPlus^TM 4–12% acrylamide gels (GenScript Inc., Piscataway, NJ, USA) in Tris-MOPS SDS-PAGE Running Buffer (GenScript). After SDS-PAGE, proteins were transblotted onto nitrocellulose membrane (BioTrace™ NT nitrocellulose transfer membrane, Cytiva Life Sciences, Marlborough, MA, USA) and blocked for 1 h in 5% non-fat milk in 20 mM Tris-buffered saline (150 mM NaCl), pH 7.4, containing 0.1% Tween-20 (TBST). The membranes were washed 3 × 10 min in TBST and then incubated with streptavidin-HRP (dilution 1:2000 in 1% non-fat milk in TBST) for 1 h and washed again 3 × 10 min in TBST. The membranes were developed using the SuperSignal™ West Pico PLUS Chemiluminescent Substrate (Thermo Scientific, Rockford, IL, USA) and images were obtained using GeneTools by Syngene on a GeneSys imaging platform (Syngene, Frederick, MD, USA). Luminescent signal intensity was calculated by raw volume using GeneTools analysis Version 4.0 software from Syngene.

[7] = target: 38 kDa DCG-04-labeled cysteine protease band (cathepsin B-like protease(s)); experiment: inhibition of DCG-04 binding (activity-based labeling), 38 kDa band; parameters: species or system Hordeum vulgare; details: 2.5 μM DCG-04, pH 5.5, 3 h, week-4 leaf extract; for IC50: densitometric analysis of blots
Procedure: as §4, §5, §6

[8] = tested on: caseinolytic protease activity of extract obtained from week-4 barley leaves; experiment: caseinolytic (total) protease activity with casein-FITC in barley leaf extract; type: biochemical, Hordeum vulgare; details: casein-FITC substrate; extract of week-4 barley leaves; pH 7.4
Procedure: as §1, §3

aleurain = tested on: aleurain; parameters: method as in PMID 16669011; details: 10 μM leupeptin; cited from earlier work
[9] = pH 7.4, week-4 leaf extract, 'No inhibition up to X' given as > X, read-out: IC50, Z-FR-AMC cleavage
[10] = pH 7.4, 'No inhibition up to X' given as > X
[11] = pH 7.4, week-4 leaf extract, 'No inhibition up to X' given as > X, read-out: IC50, Z-RR-AMC cleavage
[12] = pH 5.5, week-4 leaf extract, read-out: IC50, Z-FR-AMC cleavage
[13] = pH 7.4, week-4 leaf extract, read-out: IC50, Z-FR-AMC cleavage
[14] = pH 5.5, 'No inhibition up to X' given as > X
[15] = pH 5.5, week-4 leaf extract, read-out: IC50, Z-RR-AMC cleavage
[16] = pH 7.4, week-4 leaf extract, read-out: IC50, Z-RR-AMC cleavage

c1cnc2c(c1)ccc1cccnc12 [1,10-Phenanthroline]
IC50 ([1]; pH not given, week-4 leaf extract, read-out: IC50, Z-FR-AMC cleavage): 8900 ± 300 µM
IC50 ([2]; pH not given): 560 ± 110 µM
IC50 ([3]; pH not given, week-4 leaf extract, read-out: IC50, Z-RR-AMC cleavage): 3100 ± 200 µM

CC(C)C[C@H](NC(=O)[C@@H](O)[C@H](N)Cc1ccccc1)C(=O)O [Bestatin]
concentration required for complete inhibition of aminopeptidase [4]: 0.1 mM
IC50 [1, 9]: > 1000 µM
concentration required for complete inhibition of aminopeptidase [5]: 0.1 mM
IC50 [2, 10]: 580 ± 120 µM
IC50 [3, 11]: > 1000 µM

CCCNC(=O)[C@H]1O[C@@H]1C(=O)N[C@H](C(=O)N1CCC[C@H]1C(=O)O)[C@@H](C)CC [CA-074, (2S)-1-[(2S,3S)-3-methyl-2-[[(2S,3S)-3-(propylcarbamoyl)oxirane-2-carbonyl]amino]pentanoyl]pyrrolidine-2-carboxylic acid]
concentration that totally blocks DCG-04 binding to the 43 kDa band [6]: > 100 µM
IC50 [6]: 26.4 ± 2.8 µM
IC50 [1, 12]: 11.3 ± 2.2 µM
IC50 [1, 13]: 31 ± 5.6 µM
IC50 [7]: 1.8 ± 0.6 µM
IC50 [2, 14]: > 200 µM
IC50 [2, 10]: > 200 µM
concentration up to which no activity on R-AMC cleavage was seen ([2]; pH not given): > 0.2 mM
IC50 [3, 15]: 22.7 ± 5.3 µM
IC50 [3, 16]: 80.7 ± 12.4 µM

O=C(NCc1ccccc1)C(Cc1ccccc1)NC(=O)C1OC1C(=O)NCCc1ccc(O)cc1 [CAA0225, (2S,3S)-oxirane-2,3-dicarboxylic acid 2-[((S)-1-benzylcarbamoyl-2-phenyl-ethyl)-amide] 3-{[2-(4-hydroxy-phenyl)-ethyl]-amide}]
concentration that totally blocks DCG-04 binding to the 43 kDa band [6]: > 6 µM
IC50 [6]: 0.29 ± 0.11 µM
IC50 [1, 12]: 0.12 ± 0.0143 µM
IC50 [1, 13]: 0.0117 ± 0.0026 µM
effect on DCG-04 binding to the 38 kDa band [7]: did not block binding
IC50 [2, 14]: > 200 µM
IC50 [2, 10]: > 200 µM
concentration up to which no activity on R-AMC cleavage was seen ([2]; pH not given): > 0.2 mM
IC50 [3, 15]: 0.0906 ± 0.0122 µM
IC50 [3, 16]: 0.0116 ± 0.0035 µM

CCOC(=O)[C@H]1O[C@@H]1C(=O)N[C@@H](CC(C)C)C(=O)N[C@@H](Cc1ccc(O)cc1)C(=O)NCCCCCC(=O)N[C@@H](CCCCNC(=O)CCCC[C@@H]1SC[C@@H]2NC(=O)N[C@@H]21)C(N)=O [DCG-04]
IC50 ([1]; preliminary experiments, barley leaf extracts, pH not stated, read-out: IC50, proteolytic activity with Z-FR-AMC): 1.8 ± 0.4 µM
IC50 ([3]; preliminary experiments, barley leaf extracts, pH not stated, read-out: IC50, proteolytic activity with Z-RR-AMC): 1.8 ± 0.4 µM

CC(C)C[C@H](NC(=O)[C@H]1O[C@@H]1C(=O)O)C(=O)NCCCCNC(=N)N [E-64, trans-epoxysuccinyl-L-leucylamido-(4-guanidino) butane]
concentration that totally blocks DCG-04 binding to the 43 kDa band [6]: 1 µM
IC50 [6]: 0.048 ± 0.0122 µM
IC50 [1, 12]: 0.0123 ± 0.0028 µM
IC50 [1, 13]: 0.0245 ± 0.0042 µM
concentration that totally blocks DCG-04 binding to the 38 kDa band [7]: 1 µM
IC50 [7]: 0.0464 ± 0.0091 µM
inhibition of R-AMC cleavage ([2]; at 0.2–200 µM, pH 7.4): 20–25% inhibition at 0.2–200 µM
inhibition of R-AMC cleavage ([2]; at 1–200 µM, pH 5.5): 40–45% inhibition at 1–200 µM
IC50 [8]: 0.0644 ± 0.0031 µM
IC50 [3, 15]: 0.0062 ± 0.0017 µM
IC50 [3, 16]: 0.0081 ± 0.0019 µM

CC(=O)N[C@@H](CC(C)C)C(=O)N[C@@H](CC(C)C)C(=O)N[C@H](C=O)CCCNC(=N)N [Leupeptin]
inhibition of aleurain (aleurain): ~ 75%
inhibition of Z-FR-AMC cleavage ([1]; at 0.4 mM, pH 7.4, week-4 leaf extract): 30% inhibition at 0.4 mM
IC50 [2, 10]: > 400 µM
IC50 [3, 11]: 610 ± 30 µM

O=S(=O)(F)Cc1ccccc1 [PMSF, Phenylmethylsulfonyl fluoride]
IC50 [1, 9]: > 2000 µM
IC50 [2, 10]: > 2000 µM
inhibition of Z-RR-AMC cleavage ([3]; at 2 mM, pH 7.4, week-4 leaf extract): 30% inhibition at 2 mM

CC(C)CC(=O)N[C@H](C(=O)N[C@H](C(=O)N[C@@H](CC(C)C)[C@@H](O)CC(=O)N[C@@H](C)C(=O)N[C@@H](CC(C)C)[C@@H](O)CC(=O)O)C(C)C)C(C)C [Pepstatin A] (Isovaleryl-VV[Sta]A[Sta]-OH)
IC50 [1, 9]: > 200 µM
IC50 [2, 10]: > 200 µM
IC50 [3, 11]: > 200 µM
